Here are results for three compounds from US10568890B2 (Xi'An Libang Pharmaceutical Co., Ltd, priority 2012, dated 2020).

A short description of data set [1]: Test of miscibility of formulae in vitro. The format is physicochemical. On the procedure: Ethyl lactate was mixed with ethyl oleate, glycerol triacetate, benzyl benzoate, castor oil, sesame oil, soybean oil, corn oil and olive oil respectively for miscibility, and then the conditions of miscibility were observed. Specifically, 1) adding 0.50 ml of ethyl lactate for each one into eight vials of 7 ml each, and then adding 0.50 ml of ethyl oleate, glycerol triacetate, benzyl benzoate, castor oil, sesame oil, soybean oil, corn oil and olive oil thereto respectively; swirl them for 5 min to be mixed uniformly, followed by standing for 10 min, and then observing and recording the conditions of miscibility of various solvents; 2) adding 0.30 ml of sesame oil, soybean oil, corn oil, olive oil, ethyl oleate, glycerol triacetate and benzyl benzoate respectively into seven vials of 7 ml each; and then adding 0.30 ml of castor oil and 0.30 ml of ethyl lactate thereto; swirl them for 5 min to be mixed uniformly, followed by standing for 10 min; and then observing and recording the conditions of miscibility of various solvents.

The test system of data set [2] is advanced breast cancer patients (postmenopausal). Conditions: after treatment failure of first-line non-steroid drugs; cited from earlier work.
Data set [3] can be described thus: Solubility test of fulvestrant in some solvents. As to conditions: 25° C. The format is physicochemical. On the procedure: If it was dissolved completely, the addition of the drug was resumed to reach a saturated state. Nitrogen was introduced, and the vials were kept airtight and free of light for 1-2 days to reach a dissolution-precipitation balance.

Converted amounts (≈) assume the structure as drawn.

As for `CCOC(=O)C(C)O` (stereo not drawn) [ethyl lactate, ethyl α-hydroxylpropionate], the “miscibility of ethyl lactate” value was “miscible” in data set [1] (with benzyl benzoate, 0.50 ml each); “miscible” in data set [1] (with castor oil, 0.50 ml each); “immiscible” in data set [1] (with corn oil, 0.50 ml each); “miscible” in data set [1] (with ethyl oleate, 0.50 ml each); “miscible” in data set [1] (with glycerol triacetate, 0.50 ml each); “miscible” in data set [1] (with mixed oil 1 (1:1 ethyl oleate and castor oil)). In addition, the “miscibility of ethyl lactate” value in data set [1] (with mixed oil 2 (1:1 benzyl benzoate and castor oil)) is listed as “miscible”; in data set [1] (with mixed oil 3 (1:1 glycerol triacetate and castor oil)), “miscible”; in data set [1] (with mixed oil 4 (1:1 sesame oil and castor oil)), “miscible”; in data set [1] (with mixed oil 5 (1:1 corn oil and castor oil)), “miscible”; in data set [1] (with mixed oil 6 (1:1 olive oil and castor oil)), “miscible”; in data set [1] (with mixed oil 7 (1:1 soybean oil and castor oil)) it was “miscible”. Also, the “miscibility of ethyl lactate” value in data set [1] (with olive oil, 0.50 ml each) was “immiscible”; in data set [1] (with sesame oil, 0.50 ml each), “immiscible”; in data set [1] (with soybean oil, 0.50 ml each) it was “immiscible”.

Regarding `C=C1C[C@@H]2[C@H](CC[C@]3(C)C(=O)CC[C@@H]23)[C@@]2(C)C=CC(=O)C=C12` [exemestane], the overall response rate in data set [2] is reported as 28%.

`C[C@]12CC[C@@H]3c4ccc(O)cc4C[C@@H](CCCCCCCCC[S+]([O-])CCCC(F)(F)C(F)(F)F)[C@H]3[C@@H]1CC[C@@H]2O` (stereo partly shown) [fulvestrant]: the overall response rate in data set [2] is on record as 37%. Moreover, the results for the Solubility in data set [3] (in benzyl propionate) and in data set [3] (in isopentyl acetate) were 4.34 mg/mL (≈ 7.15 mM) and 50.98 mg/mL (≈ 84 mM), respectively.

In general, Solubility refers to the dissolved amount per volume that the medium holds. Read a high Solubility as a readily soluble substance.
